{
  "source": "patent US20090068290A1",
  "about": "“BIFEPRUNOX DOSES FOR TREATING SCHIZOPHRENIA” (priority 2006, published 2009)",
  "key": {"[1]": {"test_system": "adult subjects with schizophrenia", "assay": "PANSS general psychopathology subscale score, Clinical Study Three", "type": "in vivo, human", "conditions": "LOCF; for Change from Baseline in PASS General Psychopathology Subscale Score, Mean (SD) / Change from Baseline in PASS General Psychopathology Subscale Score, Median: Olanzapine 15 mg, ITT population", "text": "(§3) SECONDARY OBJECTIVES To assess the efficacy of bifeprunox in treating schizophrenia using the Positive Symptom sub-scale score of the PANSS, the Negative Symptom sub-scale score of the PANSS, the General Psychopathology sub-scale of the PANSS, Brief Psychiatric Rating Scale (BPRS) total score derived from the PANSS, BPRS psychosis score derived from the PANSS, the Clinical Global Impression Severity of Illness score (CGI-S), the Clinical Global Impression Improvement score (CGI-I), CGI-I responder rate, PANSS responder rate based on the PANSS total score, Calgary Depression Scale for Schizophrenia (CDSS), and Subject Satisfaction rating.\n(§4) There were four treatment arms in this study, approximately 144 subjects per arm. […] After completing the Single-Blind Placebo Lead-in Period of at least three days, bifeprunox-treated subjects were titrated from 0.25 mg up to 20 mg/day or 30 mg/day according to a standardized titration scheme over a seven- or eight-day period, respectively. When the assigned dose was reached, subjects were maintained at that dose for the remainder of the six week treatment period. […] Subjects were hospitalized (if not already inpatients) after eligibility for study entry was verified, starting from the Screening Visit until at least 10 days after Baseline. Subjects could be hospitalized longer than 10 days if considered medically necessary by the Investigator. Rating scale assessments for efficacy and abnormal movement disorders were done weekly except for Week 5. […] Subject satisfaction with study medication was assessed at Week 6."}, "[2]": {"assay": "Body weight, Clinical Study Three", "text": "To assess the safety and tolerability of bifeprunox using physical examination, weight, waist circumference, vital signs (pulse rate and systolic/diastolic blood pressure [BP], and oral temperature), 12-lead electrocardiogram (ECG), clinical laboratory assessments (hematology, biochemistry including fasting insulin level, fasting glucose, fasting lipid profile, urinalysis, special laboratory assessments for prolactin, IGF-1, IGFBP-3, and thyroid function), need for anticholinergic treatment during double-blind treatment period, concomitant medication use, adverse event (AE) monitoring, and assessments of abnormal movement including the Simpson-Angus Scale (SAS), Barnes Akathisia Scale (BAS), and Abnormal Involuntary Movement Scale (AIMS)."}, "[3]": {"test_system": "adult subjects with schizophrenia", "assay": "BPRS total score, Clinical Study Three", "type": "in vivo, human", "conditions": "LOCF; for Change from Baseline in BPRS Total Score, Mean (SD) / Change from Baseline in BPRS Total Score, Median: Olanzapine 15 mg, ITT population", "text": "as §3, §4"}, "[4]": {"test_system": "adult subjects with schizophrenia", "assay": "PANSS general psychopathology subscale score, Clinical Study One", "type": "in vivo, human", "conditions": "Risperidone 6 mg, ITT population", "protocol": "(§1) There were five treatment groups in this study. […] Study medication was administered once daily. After Baseline measurements were performed, the titration phase was begun. Bifeprunox treated subjects were titrated up to 5 mg, 10 mg or 20 mg according to a standardized titration schedule (Day 1: 0.125 mg, Day 2: 0.25 mg, Day 3: 0.5 mg, Day 4: 1.0 mg, Day 5: 2.0 mg, Day 6: 5.0 mg, Day 7: 10.0 mg, Day 8: 20 mg). When the assigned dose was reached, subjects were maintained at that dose for the remainder of the six-week treatment period.\n(§2) The change in the Positive and Negative Symptom Scale (PANSS) total score, from baseline to endpoint, was the primary outcome measure. Secondary efficacy measures included: PANSS positive, PANSS negative, PANSS general psychopathology (GPP) score, PANSS-derived Brief Psychiatric Rating Scale (BPRS) score, Clinical Global Impressions-Severity of Illness (CGI-S), CGI-Improvement (CGI-I) scores, and responder rates. Safety and tolerability evaluations included extrapyramidal symptoms (EPS), weight gain, lipid profile, and serum prolactin."}, "[5]": {"test_system": "adult subjects with schizophrenia", "assay": "BPRS total score, Clinical Study Two", "type": "in vivo, human", "conditions": "LOCF; for Change from Baseline in BPRS Total Score, Mean (SD) / Change from Baseline in BPRS Total Score, Median: Risperidone 6 mg, ITT population", "protocol": "Rating scale assessments were performed weekly, except for week 5, to measure the change from baseline to endpoint of the PANSS total score. Other assessments included: PANSS positive symptom subscale score, PANSS negative symptom subscale score, PANSS general pschopathology subscale score, BPRS total score, BPRS psychosis score, the CGI-S score, the CGI-I score, responder rates based on the PANSS total score, and the Calgary Depression Scale for Schizophrenia (CDSS). […]\nSubjects who completed this study had the option to continue in the long-term. […] Blood samples were also obtained at Screening/Baseline, Week 3, and Week 6 for clinical laboratory assessments."}, "[6]": {"test_system": "adult subjects with schizophrenia", "assay": "CGI Improvement score, Clinical Study One", "type": "in vivo, human", "conditions": "6 mg", "protocol": "as §1, §2"}},
  "data": [
    {"smiles": "Cc1cc2c(s1)Nc1ccccc1N=C2N1CCN(C)CC1", "note": "[Olanzapine, olanzapine, reference compound]", "values": [
      {"measurement": "Change from Baseline in PASS General Psychopathology Subscale Score, Mean (SD)", "setting": "[1]; Week 1", "result": "−4.5 (6.2)"},
      {"measurement": "Change from Baseline in PASS General Psychopathology Subscale Score, Median", "setting": "[1]; Week 1", "result": "−3"},
      {"measurement": "Change from Baseline in PASS General Psychopathology Subscale Score, Mean (SD)", "setting": "[1]; Week 2", "result": "−7.2 (7.8)"},
      {"measurement": "Change from Baseline in PASS General Psychopathology Subscale Score, Median", "setting": "[1]; Week 2", "result": "−6"},
      {"measurement": "Change from Baseline in PASS General Psychopathology Subscale Score, Mean (SD)", "setting": "[1]; Week 3", "result": "−9.3 (8.3)"},
      {"measurement": "Change from Baseline in PASS General Psychopathology Subscale Score, Median", "setting": "[1]; Week 3", "result": "−8"},
      {"measurement": "Change from Baseline in PASS General Psychopathology Subscale Score, Mean (SD)", "setting": "[1]; Week 4", "result": "−9.6 (8.6)"},
      {"measurement": "Change from Baseline in PASS General Psychopathology Subscale Score, Median", "setting": "[1]; Week 4", "result": "−9"},
      {"measurement": "Change from Baseline in PASS General Psychopathology Subscale Score, Mean (SD)", "setting": "[1]; Week 6/Endpoint", "result": "−10.5 (9.4)"},
      {"measurement": "Change from Baseline in PASS General Psychopathology Subscale Score, Median", "setting": "[1]; Week 6/Endpoint", "result": "−9"},
      {"measurement": "mean change (SD) from Baseline to Endpoint in PANSS general psychopathology subscale score", "setting": "[1]; olanzapine 15 mg, ITT", "result": "−10.5 (9.4)"},
      {"measurement": "Weight, Baseline, Max", "setting": "[2]; Olanzapine 15 mg", "result": 300, "unit": "lbs"},
      {"measurement": "Weight, Baseline, Mean (SD)", "setting": "[2]; Olanzapine 15 mg", "result": "175.2 (52.7) lbs"},
      {"measurement": "Weight, Baseline, Min", "setting": "[2]; Olanzapine 15 mg", "result": 68, "unit": "lbs"},
      {"measurement": "Weight, Change from Baseline at Endpoint, Max", "setting": "[2]; Olanzapine 15 mg", "result": 31, "unit": "lbs"},
      {"measurement": "Weight, Change from Baseline at Endpoint, Mean (SD)", "setting": "[2]; Olanzapine 15 mg", "result": "5.2 (6.9) lbs"},
      {"measurement": "Weight, Change from Baseline at Endpoint, Median", "setting": "[2]; Olanzapine 15 mg", "result": 4, "unit": "lbs"},
      {"measurement": "Weight, Change from Baseline at Endpoint, Min", "setting": "[2]; Olanzapine 15 mg", "result": "−7", "unit": "lbs"},
      {"measurement": "Weight, Change from Baseline at Week 6, Max", "setting": "[2]; Olanzapine 15 mg", "result": 31, "unit": "lbs"},
      {"measurement": "Weight, Change from Baseline at Week 6, Mean (SD)", "setting": "[2]; Olanzapine 15 mg", "result": "5.9 (7.3) lbs"},
      {"measurement": "Weight, Change from Baseline at Week 6, Median", "setting": "[2]; Olanzapine 15 mg", "result": 5, "unit": "lbs"},
      {"measurement": "Weight, Change from Baseline at Week 6, Min", "setting": "[2]; Olanzapine 15 mg", "result": "−7", "unit": "lbs"},
      {"measurement": "mean body weight (in words)", "setting": "[2]; olanzapine 15 mg, 6 weeks", "result": "an increase in weight"},
      {"measurement": "Change from Baseline in BPRS Total Score, Mean (SD)", "setting": "[3]; Week 1", "result": "−5.6 (6.7)"},
      {"measurement": "Change from Baseline in BPRS Total Score, Median", "setting": "[3]; Week 1", "result": "−4"},
      {"measurement": "Change from Baseline in BPRS Total Score, Mean (SD)", "setting": "[3]; Week 2", "result": "−8.9 (8.2)"},
      {"measurement": "Change from Baseline in BPRS Total Score, Median", "setting": "[3]; Week 2", "result": "−8"},
      {"measurement": "Change from Baseline in BPRS Total Score, Mean (SD)", "setting": "[3]; Week 3", "result": "−11.4 (9.3)"},
      {"measurement": "Change from Baseline in BPRS Total Score, Median", "setting": "[3]; Week 3", "result": "−11"},
      {"measurement": "Change from Baseline in BPRS Total Score, Mean (SD)", "setting": "[3]; Week 4", "result": "−12.0 (9.8)"},
      {"measurement": "Change from Baseline in BPRS Total Score, Median", "setting": "[3]; Week 4", "result": "−11"},
      {"measurement": "Change from Baseline in BPRS Total Score, Mean (SD)", "setting": "[3]; Week 6/Endpoint", "result": "−13.2 (10.7)"},
      {"measurement": "Change from Baseline in BPRS Total Score, Median", "setting": "[3]; Week 6/Endpoint", "result": "−12"},
      {"measurement": "mean change (SD) from Baseline to Endpoint in BPRS total score", "setting": "[3]; olanzapine 15 mg, ITT", "result": "−13.2 (10.7)"}
    ]},
    {"smiles": "Cc1nc2n(c(=O)c1CCN1CCC(c3noc4cc(F)ccc34)CC1)CCCC2", "note": "[Risperidone, risperidone, reference compound]", "values": [
      {"measurement": "Change from Baseline in PANSS General Psychopathology Subscale Score, Mean (S.D.)", "setting": "[4]; Endpoint LOCF", "result": "−6.8 (7.8)"},
      {"measurement": "Change from Baseline in PANSS General Psychopathology Subscale Score, Median", "setting": "[4]; Endpoint LOCF", "result": "−5"},
      {"measurement": "Change from Baseline in PANSS General Psychopathology Subscale Score, Mean (S.D.)", "setting": "[4]; Week 1, LOCF", "result": "−3.4 (5.8)"},
      {"measurement": "Change from Baseline in PANSS General Psychopathology Subscale Score, Median", "setting": "[4]; Week 1, LOCF", "result": "−3"},
      {"measurement": "Change from Baseline in PANSS General Psychopathology Subscale Score, Mean (S.D.)", "setting": "[4]; Week 2, LOCF", "result": "−5.8 (7.1)"},
      {"measurement": "Change from Baseline in PANSS General Psychopathology Subscale Score, Median", "setting": "[4]; Week 2, LOCF", "result": "−6"},
      {"measurement": "Change from Baseline in PANSS General Psychopathology Subscale Score, Mean (S.D.)", "setting": "[4]; Week 3, LOCF", "result": "−6.9 (7.3)"},
      {"measurement": "Change from Baseline in PANSS General Psychopathology Subscale Score, Median", "setting": "[4]; Week 3, LOCF", "result": "−6"},
      {"measurement": "Change from Baseline in PANSS General Psychopathology Subscale Score, Mean (S.D.)", "setting": "[4]; Week 4, LOCF", "result": "−6.3 (7.7)"},
      {"measurement": "Change from Baseline in PANSS General Psychopathology Subscale Score, Median", "setting": "[4]; Week 4, LOCF", "result": "−5"},
      {"measurement": "Change from Baseline in BPRS Total Score, Mean (SD)", "setting": "[5]; Week 1", "result": "−5.5 (6.3)"},
      {"measurement": "Change from Baseline in BPRS Total Score, Median", "setting": "[5]; Week 1", "result": "−5"},
      {"measurement": "Change from Baseline in BPRS Total Score, Mean (SD)", "setting": "[5]; Week 2", "result": "−9.1 (8.5)"},
      {"measurement": "Change from Baseline in BPRS Total Score, Median", "setting": "[5]; Week 2", "result": "−9"},
      {"measurement": "Change from Baseline in BPRS Total Score, Mean (SD)", "setting": "[5]; Week 3", "result": "−10.7 (9.4)"},
      {"measurement": "Change from Baseline in BPRS Total Score, Median", "setting": "[5]; Week 3", "result": "−11"},
      {"measurement": "Change from Baseline in BPRS Total Score, Median", "setting": "[5]; Week 4", "result": "−13"},
      {"measurement": "Change from Baseline in BPRS Total Score, Mean (SD)", "setting": "[5]; Week 6/Endpoint", "result": "−12.2 (11.7)"},
      {"measurement": "Change from Baseline in BPRS Total Score, Median", "setting": "[5]; Week 6/Endpoint", "result": "−13"},
      {"measurement": "mean change (SD) from Baseline to Endpoint in BPRS total score", "setting": "[5]; risperidone 6 mg, ITT", "result": "−12.2 (11.7)"},
      {"measurement": "Actual Value of CGI Improvement Score, Mean (S.D.)", "setting": "[6]; Endpoint LOCF", "result": "3.02 (1.21)"},
      {"measurement": "Actual Value of CGI Improvement Score, Median", "setting": "[6]; Endpoint LOCF", "result": 3.0},
      {"measurement": "Actual Value of CGI Improvement Score, Mean (S.D.)", "setting": "[6]; Week 1, LOCF", "result": "3.43 (0.97)"},
      {"measurement": "Actual Value of CGI Improvement Score, Median", "setting": "[6]; Week 1, LOCF", "result": 3.0},
      {"measurement": "Actual Value of CGI Improvement Score, Median", "setting": "[6]; Week 2, LOCF", "result": 3.0},
      {"measurement": "Actual Value of CGI Improvement Score, Mean (S.D.)", "setting": "[6]; Week 3, LOCF", "result": "2.97 (1.05)"},
      {"measurement": "Actual Value of CGI Improvement Score, Median", "setting": "[6]; Week 3, LOCF", "result": 3.0},
      {"measurement": "Actual Value of CGI Improvement Score, Mean (S.D.)", "setting": "[6]; Week 4, LOCF", "result": "3.05 (1.11)"},
      {"measurement": "Actual Value of CGI Improvement Score, Median", "setting": "[6]; Week 4, LOCF", "result": 3.0}
    ]}
  ]
}
